B1: metrnl (protein, UniProt Q641Q3 46-311, looked up)
Meteorin-like protein: QYSSDRCSWKGSGLTHEAHRKEVEQVYLRCAAGAVEWMYPTGALIVNLRPNTFSPARHLTVCIRSFTDSSGANIYLEKTGELRLLVPDGDGRPGRVQCFGLEQGGLFVEATPQQDIGRRTTGFQYELVRRHRASDLHELSAPCRPCSDTEVLLAVCTSDFAVRGSIQQVTHEPERQDSAIHLRVSRLYRQKSRVFEPVPEGDGHWQGRVRTLLECGVRPGHGDFLFTGHMHFGEARLGCAPRFKDFQRMYRDAQERGLNPCEVGTD
notes: specific myokine

What was measured:
[1] = tested on: pancreatic ductal carcinoma PDX model; assay: in vivo validation of CPT on pancreatic ductal carcinoma PDX model; conditions: co-treatment gemcitabine 10 mg/kg + 9-ING-41 40 mg/kg, i.p. 3x a week
HT29 = assay: growth of HT29 cells treated with myostatin or metrnl and oxaliplatin; assay type: cell-based, human; conditions: for growth of colorectal cancer cell line: HT29, alone; for effect in combination with oxaliplatin: HT29, combination with oxaliplatin
Text: FIGS. 6A-6C. Treatment of colon cancer cells lines with myokines and oxaliplatin. (a) HCT116 cells treated with myokines, oxaplatin, and combination of myokines and oxaplatin. (b) H29 cells treated with oxoplatin (ox), myostatin, and a combination of myostatin and oxaplatin. (c) H29 cells treated with oxoplatin (ox), metrnl, and a combination of metrnl and oxaplatin.
Next, we treated colorectal cancer cell lines HCT116 and HT29 with a myokine fraction and the specific myokines myostain and metrnl either by themselves or in combination with oxaliplatin. […] (See FIG. 6).

cancer cells = assay: live cell PWS (D) and transcriptional heterogeneity of cancer cells surviving chemotherapy; assay type: cell-based
Text: FIGS. 2A-2K. Four aspects of transcriptional heterogeneity regulation by chromatin D: (a) diversity (the relative dynamic range of expression; HT29 cells, 2445 genes), (b) intercellular heterogeneity, (c) intranetwork heterogeneity, and (d) amplification of changes in expression (ratio of changes in the expression rate of 800 significant genes induced by paclitaxel in A2780 ovarian cancer cells for high- vs. low-D cells). Predictions of a computational transcriptomics (multiscale analysis, MSA) model are shown as blue curves. (e) Chemotherapy leads to the survival of cancer cells with high D (middle-top panel; live cell PWS images of D; arrows: nuclei) and transcriptional (right-top) heterogeneity, while CPT agents (digoxin) decrease both (bottom). Left panels: MSA simulations of chromatin packing show a CPT-induced transition from a network to polymer-like packing. (f) Cells surviving chemotherapy treatment (paclitaxel (PAC); 48 h, A2780) have a larger global transcriptional space (single cell sequencing) while CPT (celecoxib) reduces it. (g) PWS images of HCT116 colon cancer cells after treatment with chemotherapy (oxaliplatin), CPT (celecoxib), and their combination. The addition of a CPT leads to >98% cancer cell death. […] Key: docetaxel (D), paclitaxel (P), oxaliplatin (0), digoxin (D), celecoxib (C), VPA (V), aspirin (A). […]

[2] = tested on: HCT116 colon cancer cells; assay: PWS imaging of HCT116 cells after chemotherapy, CPT and their combination; assay type: cell-based; conditions: celecoxib (CPT) added to oxaliplatin

Molecule	growth of colorectal cancer cell line (HT29)	effect in combination with oxaliplatin (HT29)	further results
Cn1cc(C2=C(c3coc4ccc(F)cc34)C(=O)NC2=O)c2cc3c(cc21)OCO3 [9-ING-41]			tumor volume relative to initial size [1]: < 4 % of the initial size
myostatin [myostain]	reduced the growth	synergistic effect	
C[C@H]1O[C@@H](O[C@H]2[C@@H](O)C[C@H](O[C@H]3[C@@H](O)C[C@H](O[C@H]4CC[C@@]5(C)[C@H](CC[C@@H]6[C@@H]5C[C@@H](O)[C@]5(C)[C@@H](C7=CC(=O)OC7)CC[C@]65O)C4)O[C@@H]3C)O[C@@H]2C)C[C@H](O)[C@@H]1O [digoxin]			chromatin packing scaling D (cancer cells): decrease both
Cc1ccc(-c2cc(C(F)(F)F)nn2-c2ccc(S(N)(=O)=O)cc2)cc1 [celecoxib]			cancer cell death [2]: > 98%
B1	reduced the growth	synergistic effect	
